Data reported in the supplement of paper PMC13380429.

Key:
Conditions in all cases: 72 h
Calu-3 [1] = assay: cell viability relative to DMSO; higher = less toxic
HepG2 [2] = assay: as above
Vero E6 [3] = assay: as above
U2OS [4] = assay: as above
Caco-2 [5] = assay: as above
Calu-3 [6] = assay: drug sensitivity score (DSS) for viability; higher = more toxic; extreme values may be limits of the assay
HepG2 [7] = assay: as above
Vero E6 [8] = assay: as above
U2OS [9] = assay: as above
Caco-2 [10] = assay: as above
Calu-3 [11] = assay: relative viability EC50 (midpoint between 100% and the lowest measured viability); higher = less toxic
U2OS [12] = assay: as above
Vero E6 [13] = assay: as above
HepG2 [14] = assay: as above

Compound | cell viability (Calu-3 [1]; 1 nM) | cell viability (Calu-3 [1]; 10 nM) | cell viability (Calu-3 [1]; 100 nM) | cell viability (Calu-3 [1]; 1000 nM) | cell viability (Calu-3 [1]; 10000 nM) | cell viability (HepG2 [2]; 1 nM) | cell viability (HepG2 [2]; 10 nM) | cell viability (HepG2 [2]; 100 nM) | cell viability (HepG2 [2]; 1000 nM) | cell viability (HepG2 [2]; 10000 nM) | cell viability (Vero E6 [3]; 1 nM) | cell viability (Vero E6 [3]; 10 nM) | cell viability (Vero E6 [3]; 100 nM) | cell viability (Vero E6 [3]; 1000 nM) | cell viability (Vero E6 [3]; 10000 nM) | cell viability (U2OS [4]; 1 nM) | cell viability (U2OS [4]; 10 nM) | cell viability (U2OS [4]; 100 nM) | cell viability (U2OS [4]; 1000 nM) | cell viability (U2OS [4]; 10000 nM) | cell viability (Caco-2 [5]; 1 nM) | cell viability (Caco-2 [5]; 10 nM) | cell viability (Caco-2 [5]; 100 nM) | cell viability (Caco-2 [5]; 1000 nM) | cell viability (Caco-2 [5]; 10000 nM) | drug sensitivity score (Calu-3 [6]) | drug sensitivity score (HepG2 [7]) | drug sensitivity score (Vero E6 [8]) | drug sensitivity score (U2OS [9]) | drug sensitivity score (Caco-2 [10]) | relative viability EC50 (Calu-3 [11]) | relative viability EC50 (U2OS [12]) | relative viability EC50 (Vero E6 [13]) | relative viability EC50 (HepG2 [14])
OCCN1CCN(CCCN2c3ccccc3Sc3ccc(Cl)cc32)CC1 [perphenazine] | 95.6% | 93.5% | 106% | 101% | 77.2% | 114% | 100% | 94.7% | 96% | 59.3% | 107% | 96.4% | 100% | 99.8% | 71.5% | 101% | 97% | 101% | 99.3% | 90.6% | 99.4% | 100% | 94.8% | 72.7% | 69.8% | 0.7 | 2.7 | 1.2 | 0 | 5.1 | > 10 µM | > 10 µM | – | –
OC[C@H]1O[C@H](O[C@H]2[C@H](O)[C@@H](O)[C@H](O)O[C@@H]2CO)[C@H](O)[C@@H](O)[C@@H]1O [D-(+)-maltose] | – | – | – | – | – | – | – | – | – | – | – | – | – | – | – | – | – | – | – | – | – | – | – | – | – | – | 0 | 0 | 0 | – | – | – | – | –
CCNC(=O)C[C@@H]1N=C(c2ccc(Cl)cc2)c2cc(OC)ccc2-n2c(C)nnc21 [I-BET-762] | 104% | 116% | 104% | 93.7% | 60.8% | 111% | 112% | 98.8% | 64.9% | 50.2% | 98.1% | 104% | 104% | 59.9% | 15.9% | 94.7% | 101% | 90% | 87.9% | 47.8% | 94.8% | 100% | 88.6% | 91.3% | 72.8% | 3 | 6.9 | 9.8 | 4.5 | 2 | – | 1.69 µM | 1.04 µM | –
Nc1ccc(S(=O)(=O)Nc2cnc3ccccc3n2)cc1 [sulfaquinoxaline] | – | – | – | – | – | – | – | – | – | – | – | – | – | – | – | – | – | – | – | – | – | – | – | – | – | 0.4 | 0 | 0 | 0 | – | – | – | – | –
CC(C)Oc1ccc(-c2nn([C@@H](C)c3oc4ccc(F)cc4c(=O)c3-c3cccc(F)c3)c3ncnc(N)c23)cc1F [TGR-1202] | – | – | – | – | – | 101% | 108% | 108% | 111% | 98.2% | – | – | – | – | – | – | – | – | – | – | – | – | – | – | – | – | 0 | – | – | – | – | – | – | > 10 µM
NC12CC3CC(CC(C3)C1)C2 [amantadine] | – | – | – | – | – | – | – | – | – | – | – | – | – | – | – | – | – | – | – | – | – | – | – | – | – | 0 | 0 | 0 | 0 | – | – | – | – | –
CC1(N)CCN(c2cnc(-c3cccc(Cl)c3Cl)c(N)n2)CC1 [SHP099] | 101% | 98.3% | 104% | 82.2% | 64.7% | 91.2% | 84.8% | 103% | 93.5% | 82% | 103% | 93.2% | 106% | 92.2% | 78.9% | 93.8% | 95.4% | 91.9% | 98.4% | 90.2% | 94.1% | 113% | 90.9% | 91.9% | 56.4% | 3.9 | 0.2 | 1.6 | 0 | 3.6 | – | > 10 µM | > 10 µM | > 10 µM
N=C(N)NC(=O)c1nc(Cl)c(N)nc1N [amiloride] | – | – | – | – | – | – | – | – | – | – | – | – | – | – | – | – | – | – | – | – | – | – | – | – | – | 0 | 0 | 0 | 0 | – | – | – | – | –
N[C@H](CO)C(=O)O [D-serine] | – | – | – | – | – | – | – | – | – | – | – | – | – | – | – | – | – | – | – | – | – | – | – | – | – | 0 | 0 | 0 | 0 | – | – | – | – | –
O[C@@H](COc1cccc2ncccc12)CN1CCN([C@@H]2c3ccccc3[C@@H]3[C@H](c4ccccc42)C3(F)F)CC1 [zosuquidar] | 102% | 108% | 91.5% | 96.1% | 85.7% | 104% | 98.8% | 95.6% | 92.4% | 63.1% | 104% | 105% | 98.7% | 98.5% | 72.6% | 99% | 99.4% | 99.4% | 98.2% | 76.2% | 99.5% | 102% | 87.8% | 90.2% | 55.2% | 0.1 | 3 | 1.3 | 1.1 | 3.6 | > 10 µM | > 10 µM | – | –
N#Cc1c(N)nc(SCc2ncc[nH]2)c(C#N)c1-c1ccc(O)cc1 [LUF-5834] | – | – | – | – | – | 102% | 115% | 103% | 105% | 98.6% | – | – | – | – | – | – | – | – | – | – | – | – | – | – | – | – | 0 | – | – | – | – | – | – | > 10 µM
Cc1cccc(C)c1OCC(C)N (stereo not given) [mexiletine] | – | – | – | – | – | – | – | – | – | – | – | – | – | – | – | – | – | – | – | – | – | – | – | – | – | 0 | 0.1 | 0 | 0 | – | – | – | – | –
Cc1[nH]nc(C(F)(F)F)c1Cc1sc2c(c1C(=O)N1C[C@](C)(O)CO1)c(=O)n(C)c(=O)n2C(C)C [AZD3965] | 93.6% | 101% | 101% | 103% | 107% | 99.4% | 89.2% | 99.3% | 93.3% | 101% | 99.8% | 97.5% | 101% | 92.9% | 97.4% | 99.8% | 95.3% | 89% | 92% | 89.2% | 92.9% | 79.5% | 74.9% | 72% | 76.5% | 0 | 0 | 0 | 0.6 | 10.1 | > 10 µM | > 10 µM | > 10 µM | > 10 µM
CCC[C@H]1C(=O)N2C(N(C)C)=Nc3ccc(C)cc3N2C1=O [azapropazone] | – | – | – | – | – | – | – | – | – | – | – | – | – | – | – | – | – | – | – | – | – | – | – | – | – | 0 | 0 | 0 | 0 | – | – | – | – | –
COc1ccc(CCCO[C@@H](Cn2ccnc2)c2ccc(OC)cc2)cc1 | – | – | – | – | – | 101% | 104% | 95.4% | 106% | 34% | 94.5% | 104% | 96.5% | 98% | 50.1% | 97.4% | 96.7% | 99.3% | 99.4% | 35.9% | 93.4% | 95% | 100% | 93.5% | 52.6% | – | 3.2 | 2.9 | 3.6 | 3.6 | – | 3.1 µM | – | 3.59 µM
